Measurements taken from US11666559B2, “Spiro-lactam compounds, process and uses thereof” (UNIVERSIDADE DE COIMBRA, priority 2017, dated 2023).
pIC50: −log10 of the molar value. Where two headings read alike, the source gives them in different places.

Legend:
TZM-bl cells = assay: Cellular viability assay (alamarBlue) in TZM-bl cells
Source text: In an embodiment, the cellular cytotoxicity of 17 spiro-β-lactams was investigated in TZM-bl cells using the AlamarBlue assay as recommended by the manufacturer (Invitrogen, USA). TZM-bl, previously designated JC53-bl (clone 13) is a HeLa cell line. The parental cell line (JC.53) stably expresses large amounts of CD4, CCR5 and CXCR4. The TZM-bl cell line was generated from JC.53 cells by introducing separate integrated copies of the luciferase and […] genes under control of the HIV-1 promoter. The TZM-bl cell line is highly sensitive to infection with diverse isolates of HIV.
In an embodiment, the cellular viability assay was carried out as follows: the potential in vitro cytotoxicity of all BSS compounds was evaluated in TZM-bl cells. TZM-bl cells (10000 cells/well in 96-well plates) were incubated in absence or presence of serial-two-fold dilutions of the compounds in growth medium (GM), with starting concentration of 100 μg/ml and a final concentration of 0.781 μg/ml. After 48 hours, cell viability was examined with alamarBlue reagent (Invitrogen, USA) according to manufacturer's instructions. Briefly, 10 μl of alamarBlue reagent was added to each well. After 4 hours at 37° C., the fluorescence was measured in Tecan Infinite M200 (excitation wavelength 550 nm and emission wavelength 600 nm).
In an embodiment, at least two independent experiments have been performed for each cytotoxicity analysis.
In an embodiment, for each assay there were medium controls (only growth medium), cell controls (cells without test compound) and cytotoxicity controls (a compound that kill cells—SDS).

HIV-1 = conditions: for pIC50 / IC90: TZM-bl cells
Protocol: (§1) In an embodiment, TZM-bl cells (AIDS Research and Reference Reagent Program, National Institutes of Health, USA) were cultured in complete growth medium that consists of Dulbecco's minimal essential medium (DMEM) supplemented with 10% fetal bovine serum (FBS), 100 U/ml of penicillin-streptomycin (Gibco/Invitrogen, USA), 1 mM of sodium pyruvate (Gibco/Invitrogen, USA), 2 mM of L-glutamine (Gibco/Invitrogen, USA) and 1 mM of non-essential amino acids (Gibco/Invitrogen, USA).
(§2) In an embodiment, the primary isolates 93AOHDC249, 93AOHDC250, 01PTHDECJN and 03PTHCC9, used in this study were previously isolated, titrated and characterized for co-receptor usage. HIV reference strain SG3.1 was obtained by transfection of HEK293T cells with pSG3.1 (HIV-1) plasmid using Fugene 6 reagent (Roche, Switzerland) according to manufacturer's instructions.
(§3) In an embodiment, the 50% tissue culture infectious dose (TCID50) of the virus was determined in a single-round viral infectivity assay using a luciferase reporter gene assay in TZM-bl cells and calculated using the statistical method of Reed and Muench^27.
(§4) In an embodiment, the antiviral activity of the compounds was determined in a single-round assay with TZM-bl cells as previously described ^26. Cells were infected with 200 TCID50 of virus in the presence of serial fold dilutions of the BSS compounds in GM, supplemented with DEAE-dextran (19.7 μg/ml). After 48 h of infection, luciferase expression was quantified with the One-Glow luciferase assay substrate reagent (Promega, USA) according to manufacturer's instructions. Briefly, a volume of reagent equal to that of the culture medium in each well was added. For 96-well plates, typically 100 μl of reagent is added to the cells grown in 100 μl of medium. After an incubation of 3 minutes at room temperature to allow complete cell lysis luminescence was measured in Tecan Infinite M200. Background luminescence was measured by using control wells that contained only target cells and GM. Maraviroc (CCR5 antagonist), T1249 (fusion inhibitor) and AMD3100 (CXCR4 antagonist) were used as positive controls of the antiviral activity. At least two independent experiments were performed for each analysis and each assay was set up in triplicate wells.
(§5) In an embodiment, dose-response curves were estimated from the percentage of inhibition of infection (y-axis) against logo of concentration of each compound (x-axis) using the sigmoidal dose-response equation (variable slope) in GraphPad Prism version 5.00 for Windows (GraphPad Software, San Diego Calif. USA, www.graphpad.com). IC50 and IC90 values were determined from this curve. IC50 and IC90 values correspond to the concentration of compound that inhibits viral replication in 50% and 90%, respectively.

HIV-2 = tested on: HIV-2
Protocol: as §1, §2, §3, §4, §5

P. berghei liver stages = assay: In vitro activity against the liver stage of Plasmodium infection (luciferase assay in Huh7 cells); type: cell-based, Plasmodium berghei; conditions: for anti-Plasmodium activity (in words): P. berghei liver stages in Huh7 cells
Protocol: FIG. 6: Compound activity against P. berghei liver stages. Anti-Plasmodial activity (infection axis, bars) and toxicity to hepatoma cells (cell confluency axis, circles) are shown. Infection loads of Huh7 cells, a human hepatoma cell line, were determined by bioluminescence measurements of cell lysates 48 h after infection with luciferase-expressing P. berghei parasites. Luciferase assay in 96 well-plate; 10 000 Huh7 cells/well+10 000 PbA-LuciGFPcon spz/well.
In an embodiment, the in vitro activity against the liver stage of Plasmodium infection was also carried out: inhibition of liver stage Plasmodium infection by test compounds was determined by measuring the luminescence intensity in Huh-7 cells infected with a firefly luciferase-expressing P. berghei line, as previously described. Briefly, Huh-7 cells, a human hepatoma cell line, were cultured in 1640 RPMI medium supplemented with 10% v/v fetal bovine serum, 1% v/v nonessential amino acids, 1% v/v penicillin/streptomycin, 1% v/v glutamine, and 10 mM 4-(2-hydroxyethyl)-1-piperazineethanesulfonic acid (HEPES), pH 7, and maintained at 37° C. with 5% CO2. For infection assays, Huh-7 cells (1.0×10^4 per well) were seeded in 96-well plates the day before drug treatment and infection. The medium was replaced by medium containing the appropriate concentration of each compound approximately 1 h prior to infection with sporozoites freshly obtained through disruption of salivary glands of infected female Anopheles stephensi mosquitoes. Sporozoite addition was followed by centrifugation at 1700×g for 5 min. Parasite infection load was measured 48 h after infection by a bioluminescence assay (Biotium). The effect of the compounds on the viability of Huh-7 cells was assessed by the AlamarBlue assay (Invitrogen, U.K.) using the manufacturer's protocol.

[1] = 93AOHDC249, CCR5 tropic HIV-1 primary isolate
[2] = 93AOHDC250, HIV-1 primary isolate
[3] = SG3.1, CXCR4 tropic HIV-1 adapted isolate
[4] = 03PTHCC19, CCR5 tropic HIV-2 isolate, TZM-bl cells, wa = without antiviral activity
[5] = 03PTHCC19, CCR5 tropic HIV-2 isolate, wa = without antiviral activity
[6] = HIV-2 primary isolate 00PTHCC20, X4, resistant to ABC, ZDV, d4T, ddl, LPV
[7] = HIV-2 primary isolate 00PTHDECT, R5/X4, resistant to DTG
[8] = HIV-2 primary isolate 03PTHCC20, X4, resistant to ABC, ZDV, d4T, ddl, LPV
[9] = HIV-2 primary isolate 03PTHSM9, X4, resistant to SQV, LPV, DRV and TAF
[10] = HIV-2 primary isolate 10PTHSJIG, R5, resistant to RAL, DTG, LPV, SQV, DRV and all NRTIs
[11] = HIV-2 primary isolate 15PTHCEC, X4, resistant to RAL, DTG, LPV, SQV, DRV, ABC, ddl, TDF, TAF, 3TC, d4T and FTC
[12] = HIV-2 primary isolate 15PTHSJIG, R5, resistant to RAL, DTG, 3TC and FTC
[13] = Table 3, HIV-2 isolate 03PTHCC19, R5, sensitive (control isolate), TZM-bl cells
[14] = 01PTHDECJN, CCR5 tropic HIV-1 primary isolate

Q: `CC1(C)S[C@H]2N(C(=O)[C@]23CC=C(C(=O)OCc2ccccc2)[C@@H]3C(=O)c2ccccc2)[C@H]1C(=O)OC(c1ccccc1)c1ccccc1` [BSS-730A] was tested. Which CC50 (TZM-bl cells) did it give?
A: 76800 nM

Q: And the “anti-HIV activity against HIV-1 (in words)” value (HIV-1)?
A: potent activity

Q: And the “MPI (maximum percentage of inhibition)” value (HIV-1; [1])?
A: 99%

Q: And the “TI (in vitro therapeutic index, CC50/IC50)” value (HIV-1; [1])?
A: 2946.32

Q: And the pIC50 (HIV-1; [1])?
A: 7.59

Q: What about the IC90 (HIV-1; [1]) of the same compound?
A: 118 nM

Q: And the “MPI (maximum percentage of inhibition)” value (HIV-1; [2])?
A: 94%

Q: What about the “TI (in vitro therapeutic index, CC50/IC50)” value (HIV-1; [2]) of the same compound?
A: 20247.69

Q: And the pIC50 (HIV-1; [2])?
A: 8.40

Q: What about the IC90 (HIV-1; [2]) of the same compound?
A: 19.7 nM

Q: What about the inhibition (HIV-1; HIV-1, concentration of 15.21 μM) of the same compound?
A: about 100%

Q: And the “MPI (maximum percentage of inhibition)” value (HIV-1; [3])?
A: 99%

Q: What about the “TI (in vitro therapeutic index, CC50/IC50)” value (HIV-1; [3]) of the same compound?
A: 5584.30

Q: And the pIC50 (HIV-1; [3])?
A: 7.85

Q: And the IC90 (HIV-1; [3])?
A: 25.2 nM

Q: And the “anti-HIV activity against HIV-2 (in words)” value (HIV-2)?
A: potent activity

Q: What about the “TI (in vitro therapeutic index, CC50/IC50)” value (HIV-2; 03PTHCC19, CCR5 tropic HIV-2 isolate) of the same compound?
A: 14029.58

Q: What about the pIC50 (HIV-2; [4]) of the same compound?
A: 8.30

Q: What about the IC90 (HIV-2; [4]) of the same compound?
A: 145 nM

Q: And the “MPI (maximum percentage of inhibition)” value (HIV-2; [5])?
A: 99%

Q: And the inhibition (HIV-2; HIV-2, concentration of 15.21 μM)?
A: about 100%

Q: What about the pIC50 (HIV-2; [6]) of the same compound?
A: 7.74

Q: And the IC90 (HIV-2; [6])?
A: 73 nM

Q: What about the pIC50 (HIV-2; [7]) of the same compound?
A: 7.64

Q: And the IC90 (HIV-2; [7])?
A: 57 nM

Q: What about the pIC50 (HIV-2; [8]) of the same compound?
A: 7.72

Q: And the IC90 (HIV-2; [8])?
A: 95 nM

Q: What about the pIC50 (HIV-2; [9]) of the same compound?
A: 7.80

Q: And the IC90 (HIV-2; [9])?
A: 116 nM

Q: And the pIC50 (HIV-2; [10])?
A: 7.92

Q: What about the IC90 (HIV-2; [10]) of the same compound?
A: 32 nM

Q: And the pIC50 (HIV-2; [11])?
A: 7.77

Q: What about the IC90 (HIV-2; [11]) of the same compound?
A: 51 nM

Q: And the pIC50 (HIV-2; [12])?
A: 7.74

Q: What about the IC90 (HIV-2; [12]) of the same compound?
A: 56 nM

Q: What about the pIC50 (HIV-2; [13]) of the same compound?
A: 8.10

Q: What about the IC90 (HIV-2; [13]) of the same compound?
A: 64 nM

Q: What about the “anti-Plasmodium activity (in words)” value (P. berghei liver stages) of the same compound?
A: presented activity

Q: And the pIC50 (P. berghei liver stages; luciferase-expressing P. berghei in Huh7 cells, 48 h after infection)?
A: 6.26

Q: Which CC50 (TZM-bl cells; Table 2, TZM-bl cells, 48 hours, alamarBlue) does the source give for `COC(=O)C1=C[C@@]2(N=N1)C(=O)N1[C@@H](C(=O)O)C(C)(C)S[C@@H]12` [BSS-593, (2,3′R,5R)-5′-(methoxycarbonyl)-3,3-dimethyl-7-oxo-4-thia-1-azaspiro[bicyclo[3.2.0]heptane-6,3′-pyrazole]-2-carboxylic acid] here?
A: 158000 nM

Q: And the CC50 (TZM-bl cells; read-out: CC50 (cytotoxic concentration 50%), Table 1, TZM-bl cells, 48 hours, alamarBlue)?
A: 158000 nM

Q: And the “anti-HIV activity against HIV-1 (in words)” value (HIV-1)?
A: only active against HIV-1

Q: And the “MPI (maximum percentage of inhibition)” value (HIV-1; [14])?
A: 58%

Q: What about the “TI (in vitro therapeutic index, CC50/IC50)” value (HIV-1; [14]) of the same compound?
A: 4553.31

Q: What about the pIC50 (HIV-1; [14]) of the same compound?
A: 7.46

Q: What about the “MPI (maximum percentage of inhibition)” value (HIV-1; [3]) of the same compound?
A: 84%

Q: What about the “TI (in vitro therapeutic index, CC50/IC50)” value (HIV-1; [3]) of the same compound?
A: 13144.76

Q: What about the pIC50 (HIV-1; [3]) of the same compound?
A: 7.92

Q: And the “anti-HIV activity against HIV-2 (in words)” value (HIV-2)?
A: only active against HIV-1

Q: And the IC50 (HIV-2; [4])?
A: wa

Q: What about the IC90 (HIV-2; [4]) of the same compound?
A: wa

Q: And the “MPI (maximum percentage of inhibition)” value (HIV-2; [5])?
A: wa

Q: And the “anti-Plasmodium activity (in words)” value (P. berghei liver stages)?
A: presented activity
